Tests used:
[1] = Stability: oxidized glutathione and reduced ascorbic acid after 4 weeks of storage at 5° C.; format: physicochemical; settings: reduced ascorbic acid maintained after 4 weeks at 5° C.; pH and atmosphere per formulation
Source text: Oxidized glutathione is associated with the generation of protein-carbonyls via glutathionlyation, which occurs when oxidized glutathione dissociates and attaches to proteins. […] Additionally, when ascorbic acid is oxidized into dehydroascorbate (DHA), DHA can break down and result in the formation of protein adducts in process called ascorbylation (Simpson et al., Biochim biophys Acta 2000; 1501:12-24). […] Specifically, nitrogen-sparged samples were mixed under anaerobic conditions sparged with nitrogen, and the samples were packaged using nitrogen bubbling. Ambient samples were mixed under room air conditions and were not bubbled with nitrogen. The formulations were stored at 5° C. for 4 weeks, and the percent of oxidized glutathione (GSSG) and ascorbic acid (ASC) was measured for each sample according to standard techniques.

[2] = Storage stability about 72 hours at 2-8° C.; format: physicochemical; settings: −20° C., 5° C., ambient; data not shown
Method: The effects of storage on ascorbic acid compositions including varying amounts of buffer with a consistent glutathione concentration were tested. […] At testing, Formulations 1-9 were evaluated to determine ascorbic acid and reduced and oxidized glutathione concentrations. A standard RP-HPLC method for these analytes was used. The method was validated including specificity, accuracy, repeatability, LOQ, mini linearity, in-vial NPLC sample stability and stability-indicating check with informal forced degradation samples. The pH of each formulation was determined using a pH probe place in a sample of each solution. Results are shown in FIG. 15. ascorbic (ACS) alone was unstable under the conditions tested (−20° C., 5° C., ambient) (data not shown).

[3] = system: dF508−/− primary human bronchial epithelial cells; test: Mucociliary transport rate, ASL and CBF by micro-optical coherence tomography (uOCT); format: cell-based; settings: isolated components vs PBS control; FIG. 2
Source text: Briefly, primary human bronchial epithelial cells were isolated from the airways of patients with cystic fibrosis and were terminally differentiated. All cells isolated from cystic fibrosis patients were represented by the dF508−/− genotype. […] Micro-optical coherence tomography (uOCT) was used to assess the mucociliary transport rate according to methods described in Liu, L., et al., PLoS One.
As described above in Example 2, primary human bronchial epithelial cells were isolated from the airways of patients with cystic fibrosis, and uOCT was used to assess the mucociliary transport rate according to methods described in Liu, L., et al., PLoS One.
MCT rate was assessed in a mucociliary clearance assay according to the methods in Example 3 above.

[4] = system: MRSA UAB-3; test: In vitro MIC against bacterial isolates; format: cell-based, Methicillin-resistant Staphylococcus aureus; settings: Anaerobic (+nitrate); 12 hrs
Method: (§1) The MIC for laboratory clinical isolate Pseudomonas aeruginosa (Schroeter) Migula (ATCC BAA-47 (PAO1)) was also tested. The MICs were determined under anaerobic conditions on media supplemented with nitrate, under aerobic conditions supplemented with nitrate, or under ambient conditions.
(§2) The clinical isolates were inoculated in duplicate on agar plates overnight under anaerobic conditions at 36° C.±1.0° C. in a 96-well plate. Laboratory isolates of Burkholderia cepacia were also grown in duplicate overnight under aerobic conditions at 36° C.±1.0° C. in a 96-well plate. […] Ten dilutions for each test solution were examined: 50%, 25%, 12.5%, 6.25%, 3.13%, 1.57%, 0.78%, 0.39%, 0.2%, and 0.1%. The colony isolates were incubated for 12 hours or 24 hours at 36° C.±1.0° C. under anaerobic conditions in media comprising Luria Agar/Broth and nitrate with one of the three test solutions. […] MICs were determined via visual inspection and OD620.

[5] = system: MRSA UAB-1; test: In vitro MIC against bacterial isolates; format: cell-based, Methicillin-resistant Staphylococcus aureus; settings: Anaerobic (+nitrate); 12 hrs
Method: as §1, §2

[6] = system: Pa UAB-M-2; test: In vitro MIC against bacterial isolates; format: cell-based, Pseudomonas aeruginosa; settings: Anaerobic (+nitrate); 12 hrs
Method: as §1, §2

[7] = system: Pa UAB-NM-1; test: In vitro MIC against bacterial isolates; format: cell-based, Pseudomonas aeruginosa; settings: Anaerobic (+nitrate); 12 hrs
Method: as §1, §2

[8] = system: Pa BAA-47 (PAO1); test: In vitro MIC against bacterial isolates; format: cell-based, Pseudomonas aeruginosa; settings: Anaerobic (+nitrate); 12 hrs
Method: as §1, §2

[9] = system: Pa UAB-NM-5; test: In vitro MIC against bacterial isolates; format: cell-based, Pseudomonas aeruginosa; settings: Anaerobic (+nitrate); 12 hrs
Method: as §1, §2

[10] = system: Pa UAB-NM-3; test: In vitro MIC against bacterial isolates; format: cell-based, Pseudomonas aeruginosa; settings: Anaerobic (+nitrate); 12 hrs
Method: as §1, §2

Compound | % ASC [1] | stability [2] | mucociliary transport rate [3] | MIC [4] | MIC [5] | MIC [6] | MIC [7] | MIC [8] | MIC [9] | MIC [10]
O=C1O[C@H]([C@@H](O)CO)C(O)=C1O [Ascorbic Acid Only, ascorbic acid] | 77.88% | unstable | – | – | – | – | – | – | – | –
O=C([O-])O.[Na+] [HCO3, sodium bicarbonate] | – | – | did not alter the mucociliary transport rate | 25% | 25% | 12.5% | 12.5% | 12.5% | 12.5% | 12.5%
N[C@@H](CCC(=O)N[C@@H](CS)C(=O)NCC(=O)O)C(=O)O [glutathione, Glutathione] | – | – | did not alter the mucociliary transport rate | – | – | – | – | – | – | –
